Publication PMC5645029 (Journal of medicinal chemistry, 2017)
“Also recorded” adds a separate entry of the source. Non-standard residues stand in square brackets, D forms with d. Residues, ends and D or L forms follow the SMILES beside them.

Columns and labels:
[1] = biological target: T1, mMC3R (Mus musculus, UniProt P33033); assay: AlphaScreen cAMP assay, agonist activity; conditions: up to 100 μM concentrations
[2] = biological target: T1, mMC3R; assay: AlphaScreen cAMP assay, antagonist activity; conditions: Schild paradigm, NDP-MSH
[3] = biological target: T2, mMC1R (Mus musculus, UniProt Q01727); assay: AlphaScreen cAMP assay, agonist activity; conditions: up to 100 μM concentrations
[4] = biological target: T3, mMC4R (Mus musculus, UniProt P56450); assay: AlphaScreen cAMP assay, agonist activity; conditions: up to 100 μM concentrations
[5] = biological target: mouse melanocortin-3 receptor (mouse) (UniProt P33033)
[6] = biological target: mouse melanocortin-4 receptor (mouse) (UniProt P56450)
[7] = biological target: mouse melanocortin-5 receptor (mouse) (UniProt P41149)
[8] = biological target: mouse melanocortin-1 receptor (mouse) (UniProt Q01727)
[9] = tested on: MC5R; conditions: at 100 μM concentrations, β-galactosidase assay; cited from earlier work
[10] = biological target: T4, mMC5R (Mus musculus, UniProt P41149); assay: cell-based
[11] = biological target: T3, mMC4R; conditions: for fold less potent at the MC4R compared to 1: antagonist potency relative to 1
[12] = biological target: T4, mMC5R
[13] = biological target: T2, mMC1R; conditions: read-out: Ki app at mMC1R; displacement of radiolabeled NDP-MSH; cited from earlier work
[14] = biological target: T1, mMC3R; conditions: read-out: Ki app at mMC3R; displacement of radiolabeled NDP-MSH; cited from earlier work
[15] = biological target: T3, mMC4R; conditions: read-out: Ki app at mMC4R; displacement of radiolabeled NDP-MSH; cited from earlier work

T4 sequence (P41149 whole entry): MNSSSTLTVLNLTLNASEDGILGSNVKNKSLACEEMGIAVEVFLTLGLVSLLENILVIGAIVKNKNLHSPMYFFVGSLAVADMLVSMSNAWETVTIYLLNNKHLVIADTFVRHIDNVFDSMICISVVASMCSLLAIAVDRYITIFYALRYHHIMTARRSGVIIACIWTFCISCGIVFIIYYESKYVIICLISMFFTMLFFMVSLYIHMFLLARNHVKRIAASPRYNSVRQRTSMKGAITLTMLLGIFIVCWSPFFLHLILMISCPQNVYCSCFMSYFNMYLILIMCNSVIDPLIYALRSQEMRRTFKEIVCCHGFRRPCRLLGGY
Sequence of mouse melanocortin-5 receptor (mouse) (P41149 whole entry): as above
T2 sequence (Q01727 whole entry): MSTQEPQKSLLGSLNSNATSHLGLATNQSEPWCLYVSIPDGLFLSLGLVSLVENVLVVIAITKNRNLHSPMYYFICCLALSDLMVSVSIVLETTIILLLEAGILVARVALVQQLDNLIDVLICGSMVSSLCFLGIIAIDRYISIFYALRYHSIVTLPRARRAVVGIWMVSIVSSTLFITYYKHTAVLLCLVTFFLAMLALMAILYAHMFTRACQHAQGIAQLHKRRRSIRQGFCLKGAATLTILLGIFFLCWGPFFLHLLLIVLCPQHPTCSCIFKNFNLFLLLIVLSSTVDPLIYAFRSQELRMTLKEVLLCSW
T1 sequence (P33033 whole entry): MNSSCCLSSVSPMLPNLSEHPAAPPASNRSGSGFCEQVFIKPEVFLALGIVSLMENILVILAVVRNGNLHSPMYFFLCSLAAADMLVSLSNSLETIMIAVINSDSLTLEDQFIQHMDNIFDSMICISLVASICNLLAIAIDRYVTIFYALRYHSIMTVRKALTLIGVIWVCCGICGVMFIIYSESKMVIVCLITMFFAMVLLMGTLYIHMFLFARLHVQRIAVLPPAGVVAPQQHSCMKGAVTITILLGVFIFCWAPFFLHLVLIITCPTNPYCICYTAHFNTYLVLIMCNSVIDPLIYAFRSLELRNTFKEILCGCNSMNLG
Sequence of mouse melanocortin-3 receptor (mouse) (P33033 whole entry): as above
T3 sequence (P56450 whole entry): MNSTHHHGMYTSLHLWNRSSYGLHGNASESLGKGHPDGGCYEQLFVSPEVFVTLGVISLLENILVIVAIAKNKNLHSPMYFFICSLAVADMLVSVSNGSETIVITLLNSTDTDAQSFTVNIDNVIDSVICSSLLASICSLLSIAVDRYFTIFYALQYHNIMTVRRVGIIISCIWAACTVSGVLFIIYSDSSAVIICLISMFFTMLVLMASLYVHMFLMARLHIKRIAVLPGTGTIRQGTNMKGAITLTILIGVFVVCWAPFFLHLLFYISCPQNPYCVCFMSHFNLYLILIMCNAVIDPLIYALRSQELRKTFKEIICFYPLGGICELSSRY
Sequence of mouse melanocortin-4 receptor (mouse) (P56450 whole entry): as above
Sequence of mouse melanocortin-1 receptor (mouse) (Q01727 whole entry): as the sequence (Q01727 whole entry) above

C[C@@H]1NC(=O)[C@H](CC(=O)O)NC(=O)[C@H](Cc2ccccc2)NC(=O)[C@H](Cc2ccccc2)NC(=O)[C@H](CCCNC(=N)N)NC(=O)[C@@H]2CCCN2C(=O)[C@H]2CCCN2C(=O)[C@H](Cc2ccccc2)NC1=O [Peptide 7, c[Pro-Arg-Phe-Phe-Asp-Ala-Phe-DPro]]
agonist activity at the MC3R (in words) [1]: no agonist activity
antagonist activity at the MC3R (in words) [2]: did not possess antagonist activity
agonist activity at the MC1R (in words) [3]: no agonist activity
agonist activity at the MC4R (in words) [4]: no agonist activity

c[Pro-Arg-Phe-Phe-Nle-Ala-Phe-DPro] (peptide)
agonist EC50 (cAMP AlphaScreen, HEK293 cells stably expressing the receptor) [5]: > 100000 nM
agonist EC50 (cAMP AlphaScreen, HEK293 cells stably expressing the receptor) [6]: > 100000 nM
agonist EC50 (cAMP AlphaScreen, HEK293 cells stably expressing the receptor) [7]: > 100000 nM
agonist EC50 (cAMP AlphaScreen, HEK293 cells stably expressing the receptor) [8]: > 100000 nM

N=C(N)NCCC[C@@H]1NC(=O)[C@@H]2CCCN2C(=O)[C@H]2CCCN2C(=O)[C@H](Cc2ccccc2)NC(=O)[C@H](CC(=O)O)NC(=O)[C@H](CC(N)=O)NC(=O)[C@H](Cc2ccccc2)NC(=O)[C@H](Cc2ccccc2)NC1=O [Peptide 16, c[Pro-Arg-Phe-Phe-Asn-Asp-Phe-DPro]] (cyclo(RFFNDF[dP]P))
agonist activity at the MC3R (in words) [1]: did not result in observable agonist or antagonist activity
antagonist activity at the MC3R (in words) [2]: did not result in observable agonist or antagonist activity; also recorded: did not possess antagonist activity
agonist activity at the MC4R (in words) [4]: did not result in observable agonist or antagonist activity

C[C@@H]1NC(=O)[C@H](CC(N)=O)NC(=O)[C@H](Cc2ccccc2)NC(=O)[C@H](Cc2ccccc2)NC(=O)[C@H](CCCNC(=N)N)NC(=O)[C@@H]2CCCN2C(=O)[C@H]2CCCN2C(=O)[C@H](Cc2ccccc2)NC1=O [Peptide 1, c[Pro-Arg-Phe-Phe-Asn-Ala-Phe-DPro]]
activity at the MC5R [9]: no activity

C[C@@H]1NC(=O)[C@H](CCC(=O)O)NC(=O)[C@H](Cc2ccccc2)NC(=O)[C@H](Cc2ccccc2)NC(=O)[C@H](CCCNC(=N)N)NC(=O)[C@@H]2CCCN2C(=O)[C@H]2CCCN2C(=O)[C@H](Cc2ccccc2)NC1=O [Peptide 8, c[Pro-Arg-Phe-Phe-Glu-Ala-Phe-DPro]]
EC50 [10]: 700 nM
fold less potent at the MC4R compared to 1 [11]: 16 fold
agonist activity at the MC3R (in words) [1]: did not result in measurable activity
antagonist activity at the MC3R (in words) [2]: did not result in measurable activity

C[C@@H]1NC(=O)[C@H](CN)NC(=O)[C@H](Cc2ccccc2)NC(=O)[C@H](Cc2ccccc2)NC(=O)[C@H](CCCNC(=N)N)NC(=O)[C@@H]2CCCN2C(=O)[C@H]2CCCN2C(=O)[C@H](Cc2ccccc2)NC1=O [Peptide 2, c[Pro-Arg-Phe-Phe-Dap-Ala-Phe-DPro]]
EC50 [10]: 60 nM
activity at the MC5R [9]: no activity

N=C(N)NCCC[C@@H]1NC(=O)[C@@H]2CCCN2C(=O)[C@H]2CCCN2C(=O)[C@H](Cc2ccccc2)NC(=O)[C@H](CCC(=O)O)NC(=O)[C@H](CC(N)=O)NC(=O)[C@H](Cc2ccccc2)NC(=O)[C@H](Cc2ccccc2)NC1=O [Peptide 17, c[Pro-Arg-Phe-Phe-Asn-Glu-Phe-DPro]] (cyclo(RFFNEF[dP]P))
agonist activity at the MC3R (in words) [1]: did not result in observable agonist or antagonist activity
antagonist activity at the MC3R (in words) [2]: did not result in observable agonist or antagonist activity; also recorded: did not possess antagonist activity
agonist activity at the MC4R (in words) [4]: did not result in observable agonist or antagonist activity
activity at the MC5R (in words) [12]: no activity

C[C@@H]1NC(=O)[C@H]([C@@H](C)O)NC(=O)[C@H](Cc2ccccc2)NC(=O)[C@H](Cc2ccccc2)NC(=O)[C@H](CCCNC(=N)N)NC(=O)[C@@H]2CCCN2C(=O)[C@H]2CCCN2C(=O)[C@H](Cc2ccccc2)NC1=O [Peptide 6, c[Pro-Arg-Phe-Phe-Thr-Ala-Phe-DPro]] (cyclo(RFFTAF[dP]P))
EC50 [10]: 50 nM
fold more potent at the MC4R compared to 13 ([11]; antagonist potency relative to 13): 70 fold
agonist activity at the MC3R (in words) [1]: No agonist activity
agonist activity at the MC1R (in words) [3]: No agonist activity
agonist activity at the MC4R (in words) [4]: No agonist activity

C[C@@H]1NC(=O)[C@H](C)NC(=O)[C@H](Cc2ccccc2)NC(=O)[C@H](Cc2ccccc2)NC(=O)[C@H](CCCNC(=N)N)NC(=O)[C@@H]2CCCN2C(=O)[C@H]2CCCN2C(=O)[C@H](Cc2ccccc2)NC1=O [Peptide 3, c[Pro-Arg-Phe-Phe-Ala-Ala-Phe-DPro]]
EC50 [10]: 250 nM
fold less potent at the MC4R compared to 1 [11]: 8 fold
antagonist activity at the MC3R (in words) [2]: did not possess antagonist activity

CC[C@@H]1NC(=O)[C@H](Cc2ccccc2)NC(=O)[C@H](Cc2ccccc2)NC(=O)[C@H](CCCNC(=N)N)NC(=O)[C@@H]2CCCN2C(=O)[C@H]2CCCN2C(=O)[C@H](Cc2ccccc2)NC(=O)[C@H](C)NC1=O [Peptide 4, c[Pro-Arg-Phe-Phe-Abu-Ala-Phe-DPro]]
EC50 [10]: 160 nM
antagonist activity at the MC3R (in words) [2]: did not possess antagonist activity

CCCC[C@@H]1NC(=O)[C@H](Cc2ccccc2)NC(=O)[C@H](Cc2ccccc2)NC(=O)[C@H](CCCNC(=N)N)NC(=O)[C@@H]2CCCN2C(=O)[C@H]2CCCN2C(=O)[C@H](Cc2ccccc2)NC(=O)[C@H](C)NC1=O [Peptide 11, c[Pro-Arg-Phe-Phe-Nle-Ala-Phe-DPro]]
fold less potent at the MC4R compared to 1 [11]: at least 8 fold
activity at the MC5R (in words) [12]: no activity

B1: c[Pro-Arg-Phe-Phe-Asn-Glu-Phe-DPro] (peptide)
peptide: cyclo(PRFFNEF[dP])
SMILES: N=C(N)NCCC[C@@H]1NC(=O)[C@@H]2CCCN2C(=O)[C@H]2CCCN2C(=O)[C@H](Cc2ccccc2)NC(=O)[C@H](CCC(=O)O)NC(=O)[C@H](CC(N)=O)NC(=O)[C@H](Cc2ccccc2)NC(=O)[C@H](Cc2ccccc2)NC1=O
agonist EC50 (cAMP AlphaScreen, HEK293 cells stably expressing the receptor) [5]: > 100000 nM
agonist EC50 (cAMP AlphaScreen, HEK293 cells stably expressing the receptor) [6]: > 100000 nM
agonist EC50 (cAMP AlphaScreen, HEK293 cells stably expressing the receptor) [7]: > 100000 nM

B2: c[Pro-Arg-Phe-Phe-Asn-Leu-Phe-DPro] (peptide)
peptide: cyclo(PRFFNLF[dP])
SMILES: CC(C)C[C@@H]1NC(=O)[C@H](CC(N)=O)NC(=O)[C@H](Cc2ccccc2)NC(=O)[C@H](Cc2ccccc2)NC(=O)[C@H](CCCNC(=N)N)NC(=O)[C@@H]2CCCN2C(=O)[C@H]2CCCN2C(=O)[C@H](Cc2ccccc2)NC1=O
agonist EC50 (cAMP AlphaScreen, HEK293 cells stably expressing the receptor) [7]: > 100000 nM

B3: c[Pro-Arg-Phe-Phe-Phe-Ala-Phe-DPro] (peptide)
peptide: cyclo(PRFFFAF[dP])
SMILES: C[C@@H]1NC(=O)[C@H](Cc2ccccc2)NC(=O)[C@H](Cc2ccccc2)NC(=O)[C@H](Cc2ccccc2)NC(=O)[C@H](CCCNC(=N)N)NC(=O)[C@@H]2CCCN2C(=O)[C@H]2CCCN2C(=O)[C@H](Cc2ccccc2)NC1=O
agonist EC50 (cAMP AlphaScreen, HEK293 cells stably expressing the receptor) [5]: > 100000 nM
agonist EC50 (cAMP AlphaScreen, HEK293 cells stably expressing the receptor) [6]: > 100000 nM
agonist EC50 (cAMP AlphaScreen, HEK293 cells stably expressing the receptor) [7]: > 100000 nM
agonist EC50 (cAMP AlphaScreen, HEK293 cells stably expressing the receptor) [8]: > 100000 nM

B4: mASP: recombinant mouse agouti-signaling protein (protein, UniProt Q03288 23-131, looked up)
Agouti-signaling protein: HLALEETLGDDRSLRSNSSMNSLDFSSVSIVALNKKSKKISRKEAEKRKRSSKKKASMKKVARPPPPSPCVATRDSCKPPAPACCDPCASCQCRFFGSACTCRVLNPNC
Ki [13]: 2.6 nM
Ki [14]: 190 nM
Ki [15]: 54 nM

B5: c[Pro-Arg-Phe-Phe-Asn-His-Phe-DPro] (peptide)
peptide: cyclo(PRFFNHF[dP])
SMILES: N=C(N)NCCC[C@@H]1NC(=O)[C@@H]2CCCN2C(=O)[C@H]2CCCN2C(=O)[C@H](Cc2ccccc2)NC(=O)[C@H](Cc2c[nH]cn2)NC(=O)[C@H](CC(N)=O)NC(=O)[C@H](Cc2ccccc2)NC(=O)[C@H](Cc2ccccc2)NC1=O
agonist EC50 (cAMP AlphaScreen, HEK293 cells stably expressing the receptor) [5]: > 100000 nM
agonist EC50 (cAMP AlphaScreen, HEK293 cells stably expressing the receptor) [6]: > 100000 nM
agonist EC50 (cAMP AlphaScreen, HEK293 cells stably expressing the receptor) [7]: > 100000 nM
